# Data reported in article PMC7069944, “Amino acid levels determine metabolism and CYP450 function of hepatocytes and hepatoma cell lines” (Nature Communications, 2020).
# Where “and” joins values, the source holds several entries; their conditions need not be identical. Equal values may be shown once.
# Tests used:
# HC3X = test: Repeated-exposure DILI training compounds, resazurin conversion, HC3X; conditions: for IC50/Cmax: human; for resazurin conversion (Supplementary Figure 7D): HC3X AAGLY D40, replicates
# Experimental: (§1) To evaluate the ability to predict hepatotoxicity, we adapted the differentiation assays to a 384-well format. […] As a readout, we evaluated cell viability by resazurin conversion and correlated the results to therapeutic doses (Cmax values).
# (§2) PSCs were differentiated in a 384-well format. […] As a negative control, 41 wells were left untreated. HepG2 were seeded at 40,000 cells per well. […] Cells were fixed with 4% PFA. […] Drugs were administrated after 8 h of attachment.
# HC6X = test: Repeated-exposure DILI training compounds, resazurin conversion, HC6X; conditions: for resazurin conversion (Supplementary Figure 7D): replicates; for % resazurin conversion: repeat exposure
# Experimental: as §1, §2
# HepG2 = test: Repeated-exposure DILI training compounds, resazurin conversion, HepG2; conditions: for resazurin conversion (Supplementary Figure 7D): replicates; for % resazurin conversion: repeat exposure
# Experimental: as §1, §2
# HLC = test: Repeated-exposure DILI training compounds, resazurin conversion, HLC; conditions: repeat exposure
# Experimental: as §1, §2
# [1] = HC6X AAGLY D40 Remove dox, 100 uM
smiles,measurement,setting,value
C1CCC(C(CC2CCCCN2)C2CCCCC2)CC1 (stereo not shown) [perhexiline],IC50/Cmax,HC3X,0.58
CCc1ccc(CCOc2ccc(CC3SC(=O)NC3=O)cc2)nc1 (stereo not shown) [Proglitazone],resazurin conversion (Supplementary Figure 7D),"HC6X; HC6X AAGLY D40, 30 uM",134.4 and 112 and 79.3 and 107.2 and 76.2 and 91.4
same,resazurin conversion (Supplementary Figure 7D),"HC6X; HC6X AAGLY D40, 50 uM",137 and 83.7 and 59.1 and 75.7 and 149.3 and 136.5
same,resazurin conversion (Supplementary Figure 7D),"HC6X; HC6X AAGLY D40, 100 uM",100.9 and 141.3 and 83.6 and 90.9 and 69.2 and 155.3
same,resazurin conversion (Supplementary Figure 7D),"HC6X; HC6X AAGLY D40, 300 uM",125.9 and 124.5 and 135.2 and 127.1 and 125.2 and 153.4
same,resazurin conversion (Supplementary Figure 7D),"HC6X; HC6X AAGLY D40, 600 uM",91.5 and 88.8 and 88.2 and 125.7 and 101 and 136.6
same,resazurin conversion (Supplementary Figure 7D),"HC6X; HC6X AAGLY D40, 1200 uM",94.8 and 131 and 95.9 and 103.6 and 97.2 and 136.5
same,resazurin conversion (Supplementary Figure 7D),"HC6X; HC6X AAGLY D40 Remove dox, 30 uM",121 and 98.9 and 91.2 and 87.5 and 101
same,resazurin conversion (Supplementary Figure 7D),"HC6X; HC6X AAGLY D40 Remove dox, 50 uM",105.9 and 84.2 and 118.5 and 71.8 and 81.4 and 110
same,resazurin conversion (Supplementary Figure 7D),HC6X; [1],120.6 and 83.7 and 95.6 and 119.3 and 129.6
same,resazurin conversion (Supplementary Figure 7D),"HC6X; HC6X AAGLY D40 Remove dox, 300 uM",107.4 and 124.1 and 139.3 and 91.4 and 117.3 and 157.9
same,resazurin conversion (Supplementary Figure 7D),"HC6X; HC6X AAGLY D40 Remove dox, 600 uM",74.1 and 108.7 and 93.3 and 116.1 and 116 and 105.8
same,resazurin conversion (Supplementary Figure 7D),"HC6X; HC6X AAGLY D40 Remove dox, 1200 uM",119 and 156.2 and 148 and 139.2 and 120.5
same,resazurin conversion (Supplementary Figure 7D),HC3X; 30 uM,121 and 98.9 and 91.2 and 87.5 and 101
same,resazurin conversion (Supplementary Figure 7D),HC3X; 50 uM,105.9 and 84.2 and 118.5 and 71.8 and 81.4 and 110
same,resazurin conversion (Supplementary Figure 7D),HC3X; 100 uM,120.6 and 83.7 and 95.6 and 119.3 and 129.6
same,resazurin conversion (Supplementary Figure 7D),HC3X; 300 uM,107.4 and 124.1 and 139.3 and 91.4 and 117.3 and 157.9
same,resazurin conversion (Supplementary Figure 7D),HC3X; 600 uM,74.1 and 108.7 and 93.3 and 116.1 and 116 and 105.8
same,resazurin conversion (Supplementary Figure 7D),HC3X; 1200 uM,119 and 156.2 and 148 and 139.2 and 120.5
same,resazurin conversion (Supplementary Figure 7D),"HepG2; HepG2 AAGLY D30, 30 uM",76.5 (2×) and 98.3 and 82.8 and 103.2 and 80.9
same,resazurin conversion (Supplementary Figure 7D),"HepG2; HepG2 AAGLY D30, 50 uM",86.1 and 109.6 and 86.4 and 100 and 77.1 and 92.9
same,resazurin conversion (Supplementary Figure 7D),"HepG2; HepG2 AAGLY D30, 100 uM",85.4 and 96.2 and 90.6 and 100.7 and 78.9 and 86.6
same,resazurin conversion (Supplementary Figure 7D),"HepG2; HepG2 AAGLY D30, 300 uM",105.7 and 117.9 and 106.2 and 102.2
same,resazurin conversion (Supplementary Figure 7D),"HepG2; HepG2 AAGLY D30, 600 uM",91.8 and 99.3 and 126.4 and 102.6 and 116.8
same,resazurin conversion (Supplementary Figure 7D),"HepG2; HepG2 AAGLY D30, 1200 uM",95.2 and 102.5 and 118.4 and 129.4 and 110.4 and 135.6
same,resazurin conversion (Supplementary Figure 7D),"HepG2; HepG2 CTL D7, 30 uM",120.4 and 118.8 and 101.6 and 104 and 100.1
same,resazurin conversion (Supplementary Figure 7D),"HepG2; HepG2 CTL D7, 50 uM",129.5 and 93.8 and 100.8 and 96.7 and 101.2 and 122.3
same,resazurin conversion (Supplementary Figure 7D),"HepG2; HepG2 CTL D7, 100 uM",125.4 and 88.5 and 98 and 96 (2×) and 110.7
same,resazurin conversion (Supplementary Figure 7D),"HepG2; HepG2 CTL D7, 300 uM",117.2 and 87 and 94.6 (2×) and 95.5 and 111.8
same,resazurin conversion (Supplementary Figure 7D),"HepG2; HepG2 CTL D7, 600 uM",86.3 and 70.3 and 76.6 and 75.3 and 70.1 and 87.4
same,resazurin conversion (Supplementary Figure 7D),"HepG2; HepG2 CTL D7, 1200 uM",57 and 33 and 42.5 and 44.8 and 41.7 and 59
O=C1CC2(CCCC2)CC(=O)N1CCCCN1CCN(c2ncccn2)CC1 [Buspiron],% resazurin conversion,"HC6X; HC6X AAGLY D40, 3 uM",109.5% and 96.9% and 120.8% and 98% and 87.5% and 117.9%
same,% resazurin conversion,"HC6X; HC6X AAGLY D40, 5 uM",83.7% and 97.5% and 104.1% and 109.8% and 83.3% and 99.7%
same,% resazurin conversion,"HC6X; HC6X AAGLY D40, 10 uM",85.5% and 135.9% and 111.1% and 117.5% and 91.9% and 102.2%
same,% resazurin conversion,"HC6X; HC6X AAGLY D40, 30 uM",114% and 167.8% and 149.8% and 117.8% and 94% and 164.1%
same,% resazurin conversion,"HC6X; HC6X AAGLY D40, 50 uM",112.9% and 116.6% and 111.2% and 167.3% and 107.2% and 107.3%
same,% resazurin conversion,"HC6X; HC6X AAGLY D40, 100 uM",109.2% and 112.4% and 163.5% and 127.2% and 106% and 162.8%
same,% resazurin conversion,"HC6X; HC6X AAGLY D40, 300 uM",140.3% and 103.5% and 121.9% and 115.9% and 101.2% and 155.2%
same,% resazurin conversion,"HC6X; HC6X AAGLY D40, 600 uM",143.6% and 91% and 112.3% and 121.3% and 99.3% and 149.8%
same,% resazurin conversion,"HC6X; HC6X AAGLY D40, 1200 uM",56.9% and 60.8% and 76.3% and 66.9% and 59.2%
same,% resazurin conversion,"HC6X; HC6X AAGLY D40 Remove dox, 3 uM",93.4% and 152.6% and 130.2% and 156.1% and 101.5% and 127.1%
same,% resazurin conversion,"HC6X; HC6X AAGLY D40 Remove dox, 10 uM",169.9% and 114.9% and 169.4% and 120.1% and 97.5% and 96%
same,% resazurin conversion,HC6X; [1],158.4% and 106.8% and 179.1% and 111.4% and 123.7% and 132%
same,% resazurin conversion,"HLC; HLC AAGLY D40, 5 uM",67.7% and 92.7% and 64.2% and 84.3% and 47.9% and 66.7%
same,% resazurin conversion,"HLC; HLC AAGLY D40, 10 uM",85.8% and 64.9% and 92.1% and 82% and 66.1% and 66.8%
same,% resazurin conversion,"HLC; HLC AAGLY D40, 30 uM",116.3% and 73.9% and 114.6% and 80.9% and 111.6% and 83.2%
same,% resazurin conversion,"HLC; HLC AAGLY D40, 600 uM",33.4% and 36.6% and 61.5% and 38.3% and 40.4% and 34.1%
same,% resazurin conversion,"HLC; HLC AAGLY D40, 1200 uM",36.8% and 25.4% and 26.6% and 31.3% and 28.1% and 38%
same,% resazurin conversion,"HLC; HLC LDM D40, 3 uM",103.9% and 103.1% and 108.1% and 79.4% and 66.2% and 77.5%
same,% resazurin conversion,"HLC; HLC LDM D40, 5 uM",89.3% and 69.5% and 87.6% and 70.2% and 108.2%
same,% resazurin conversion,"HLC; HLC LDM D40, 10 uM",86.6% and 87.3% and 101% and 83.8% and 104.7% and 105%
same,% resazurin conversion,"HLC; HLC LDM D40, 30 uM",71.9% and 90.1% and 102.1% and 75.5% and 80.5% and 81.4%
same,% resazurin conversion,"HLC; HLC LDM D40, 50 uM",56.1% and 105.8% and 92.3% and 104% and 79.6%
same,% resazurin conversion,"HLC; HLC LDM D40, 100 uM",84.7% and 120.8% and 121.2% and 77.9% and 92% and 91.2%
same,% resazurin conversion,"HepG2; HepG2 AAGLY D30, 3 uM",82.9% and 82.6% and 85.2% and 70.1% and 73.2%
same,% resazurin conversion,"HepG2; HepG2 AAGLY D30, 5 uM",75.8% and 88.2% and 72.9% and 66.2% and 79.4% and 72.2%
same,% resazurin conversion,"HepG2; HepG2 AAGLY D30, 10 uM",70.9% and 76.8% and 83.7% and 64.5% and 73.5% and 76.4%
same,% resazurin conversion,"HepG2; HepG2 AAGLY D30, 30 uM",83.2% and 92.9% and 78.7% and 72.3% and 78.9% and 76.5%
same,% resazurin conversion,"HepG2; HepG2 AAGLY D30, 50 uM",80.3% and 98.3% and 89.9% and 83.3% and 93.4% and 81.9%
same,% resazurin conversion,"HepG2; HepG2 AAGLY D30, 100 uM",88.3% and 87.7% and 85.2% and 77.2% and 94.7% and 81.8%
same,% resazurin conversion,"HepG2; HepG2 AAGLY D30, 300 uM",47.4% and 86.8% and 88.6% and 79.7% and 88.3% and 80.1%
same,% resazurin conversion,"HepG2; HepG2 AAGLY D30, 600 uM",76.5% and 91.9% and 75.1% and 71.1% and 78% and 76.7%
same,% resazurin conversion,"HepG2; HepG2 AAGLY D30, 1200 uM",38% and 34.1% and 34.5% and 34.6% and 35.7%
same,% resazurin conversion,"HepG2; HepG2 CTL D7, 3 uM",92.8%
same,% resazurin conversion,"HepG2; HepG2 CTL D7, 5 uM",96.4% and 97.6% and 106.5% and 96.6% and 98% and 90.2%
same,% resazurin conversion,"HepG2; HepG2 CTL D7, 10 uM",94.3% and 94.1% and 99.5% and 93.5% and 98.4% and 95.6%
same,% resazurin conversion,"HepG2; HepG2 CTL D7, 30 uM",82.7% and 84.2% and 92.3% and 83% and 85.3% and 78.8%
same,% resazurin conversion,"HepG2; HepG2 CTL D7, 50 uM",72.7% and 67.2% and 78.7% and 68.5% and 76.7% and 71.9%
same,% resazurin conversion,"HepG2; HepG2 CTL D7, 100 uM",67.5% and 61.8% and 72.7% and 60.8% and 71.2% and 63.1%
same,% resazurin conversion,"HepG2; HepG2 CTL D7, 300 uM",61.1% and 51.9% and 57.2% and 57% and 59.1% and 57.6%
same,% resazurin conversion,"HepG2; HepG2 CTL D7, 600 uM",38.6% and 29% and 35.3% and 36.3% and 35.1% and 38.2%
same,% resazurin conversion,"HepG2; HepG2 CTL D7, 1200 uM",7% and 6.5% and 7.1% and 6.8% and 6.6%
O=C1CC2(CCCC2)CC(=O)N1CCCCN1CCN(c2ncccn2)CC1 [Buspirone],IC50/Cmax,HC3X,120200
